In paper PMC7118351 (BMB Reports, 2020):
Counter-ions that a name gives are not always drawn. Like-named read-outs stand apart in the source and are kept apart here.

Tests used:
[1] = in vitro; settings: human
[2] = system: Ebola trVLP replication; experiment: microbe, parasite or virus in culture; assay type: cell-based, Ebola virus (EBOV)
[3] = system: HEK293T cells; settings: human
[4] = in vitro; settings: human; remark: listed apart in the source
[5] = system: VP40; assay type: cell-based, Ebola virus (EBOV)
[6] = system: tetracistronic minigenome RNA incorporated into trVLPs; assay type: cell-based, Ebola virus (EBOV)
[7] = system: EBOV GP; assay type: cell-based, Ebola virus (EBOV)
[8] = system: rhinovirus; assay type: cell-based
[9] = system: dengue virus; assay type: cell-based

Row | SMILES | CC50 [1] [µM] | SI (selectivity index, ratio of CC50 to EC50) [2] | EC50 ([2]; Zaire ebolavirus, HEK-293T) [µM] | further results
1 | CN1[C@@H]2CC[C@H]1C[C@@H](OC(c1ccccc1)c1ccccc1)C2 [Benztropine mesylate] | > 30 |  |  | 
2 | CN1CCN(C(c2ccccc2)c2ccc(Cl)cc2)CC1 (centres unmarked) [Chlorcyclizine] | > 30 | > 17.0 | 2.7 ± 2.2 | 
3 | CN1[C@@H]2CC[C@H]1C[C@@H](OC(c1ccccc1)c1ccc(Cl)cc1)C2 (some centres unmarked) [Hit 3-CPMT, 3a-[(4-chlorophenyl)phenylmethoxy]tropane] | > 30 | > 26.3 | 1.3 ± 0.5 | 
4 | NC(=O)c1nc(F)c[nH]c1=O [Hit T-705, 6-flouro-3-hydroxy-2-pyrazinecarboxamide] | > 90 | > 13.0 | 4.7 ± 3.1 | 
5 | CN1CCCN(C(c2ccccc2)c2ccc(Cl)cc2)CC1 (centres unmarked) [Homochlorcyclizine] | > 30 | > 37.1 | 0.8 | 
6 | CC(C)(N)C(=O)N[C@H](COCc1ccccc1)C(=O)N1CCC2(CC1)CN(S(C)(=O)=O)c1ccccc12 [Ibutamoren mesylate, ibutamoren mesylate] |  | > 81.1 | 0.2 | EC50 [2]: < 0.4 µM; S.I. (selectivity index) [2]: 222.8; CC50 [3]: > 30 µM; CC50 [4]: 76.7 µM; VP40 protein level (Western blot) [5]: downregulated in a dose-dependent manner; amount of negative-sense minigenome RNA incorporated into trVLPs [6]: suppression of the amount of negative-sense minigenome RNA incorporated into trVLPs in a dose-dependent manner; reduction of the number of GP-positive spots [7]: 74.2%
7 | CN(C)C(=O)C(CCN1CCC(O)(c2ccc(Cl)cc2)CC1)(c1ccccc1)c1ccccc1 [Loperamide] | > 30 |  |  | 
8 | CNCCCC12CCC(c3ccccc31)c1ccccc12 [Maprotiline] | 25.1 ± 2.1 |  |  | 
9 | OCCN1CCN(CCCN2c3ccccc3Sc3ccc(Cl)cc32)CC1 [Perphenazine] | 17.4 ± 0.6 | 27.7 ± 9.2 | 0.7 ± 0.2 | 
10 | CC(=O)c1ccc2c(c1)N(CCCN1CCC(CCO)CC1)c1ccccc1S2 [Piperacetazine] | 26.1 ± 5.5 | 15.7 ± 4.6 | 2 ± 0.6 | 
11 | CCCC(C(=O)OCCN(CC)CC)(c1ccccc1)c1ccccc1 [Proadifen] | > 30 | > 11.6 | 2.7 ± 0.7 | 
12 | NC(=O)c1ncn([C@@H]2O[C@H](CO)[C@@H](O)[C@H]2O)n1 [RBV, ribavirin] |  | > 16.3 |  | EC50 [2]: 4.1 ± 2.1 µM; CC50 [3]: > 90 µM; VP40 protein level (Western blot) [5]: downregulated in a dose-dependent manner; reduction of the number of GP-positive spots [7]: 62.5%
13 | O=C(c1ccc(OCCN2CCCCC2)cc1)c1c(-c2ccc(O)cc2)sc2cc(O)ccc12 [Raloxifene, raloxifene hydrochloride] | 13.9 | 47.1 ± 2.2 |  | CC50 [3]: 25.6 ± 0.2 µM; CC50 [4]: 23.4 µM; viral inhibition in cells [8]: no viral inhibition; VP40 protein level (Western blot) [5]: downregulated in a dose-dependent manner; amount of negative-sense minigenome RNA incorporated into trVLPs [6]: suppression of the amount of negative-sense minigenome RNA incorporated into trVLPs in a dose-dependent manner; reduction of the number of GP-positive spots [7]: 69.1%; viral inhibition in cells [9]: no viral inhibition
14 | Cc1[nH]c(/C=C2\C(=O)Nc3ccc(S(=O)(=O)N(C)c4cccc(Cl)c4)cc32)c(C)c1C(=O)N1CCN(C)CC1 [SU11274] | > 30 | > 13.6 | 2.6 ± 1.4 | 
15 | O=C1NCCN1CCN1CCC(c2cn(-c3ccc(F)cc3)c3ccc(Cl)cc23)CC1 [Sertindole] | 23.1 | > 45.8 |  | CC50 [3]: > 30 µM; CC50 [4]: 13.7 µM; viral inhibition in cells [8]: no viral inhibition; VP40 protein level (Western blot) [5]: downregulated in a dose-dependent manner; amount of negative-sense minigenome RNA incorporated into trVLPs [6]: suppression of the amount of negative-sense minigenome RNA incorporated into trVLPs in a dose-dependent manner; reduction of the number of GP-positive spots [7]: 84.7%; viral inhibition in cells [9]: no viral inhibition
16 | CN(C)CCCN1c2ccccc2Sc2ccc(C(F)(F)F)cc21 [Triflupromazine] | > 30 | > 23.8 | 1.4 ± 0.5 | 
